{"source": "paper PMC8733726", "about": "“Dioctanoyl Ultrashort Tetrabasic β-Peptides Sensitize Multidrug-Resistant Gram-Negative Bacteria to Novobiocin and Rifampicin” (Frontiers in Microbiology, 2021)", "key": {"[1]": {"system": "wild-type P. aeruginosa PAO1", "test": "microbe, parasite or virus in culture", "assay_type": "cell-based, Pseudomonas aeruginosa", "conditions": "PAO1; for MICcombo: antibiotic with dUSTBβP 3 at 8 μg/mL", "summary_of_the_method": "(§1)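 Checkerboard in MHB with 5 × 10^5 CFU/mL inoculum, antibiotic and adjuvant each serially 2-fold diluted on crossed axes. Growth read as turbidity at 590 nm; FICI is the sum of each agent's MIC in combination divided by its MIC alone.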"}, "[2]": {"system": "wild-type E. coli ATCC 25922", "test": "microbe, parasite or virus in culture", "assay_type": "cell-based, Escherichia coli", "conditions": "ATCC 25922; for MICcombo: antibiotic with dUSTBβP 3 at 8 μg/mL", "summary_of_the_method": "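Checkerboard: antibiotic and adjuvant each 2-fold serially diluted against each other, inoculum 5 × 10^5 CFU/mL in MHB, 18 h at 37°C, growth by OD590. FICI = sum of MIC-in-combination/MIC-alone ratios for both agents; ≤0.5 synergy, >0.5–4 additive, >4 antagonism.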"}, "[3]": {"system": "MDR P. aeruginosa clinical isolates", "test": "Resistance phenotype (MICs of antibiotics) of MDR clinical isolates", "assay_type": "cell-based, Pseudomonas aeruginosa"}, "[4]": {"system": "MDR E. coli clinical isolates", "test": "Resistance phenotype (MICs of antibiotics) of MDR clinical isolates", "assay_type": "cell-based, Escherichia coli"}, "[5]": {"system": "wild-type A. baumannii ATCC 17978", "test": "Checkerboard assay", "assay_type": "cell-based, Acinetobacter baumannii", "conditions": "ATCC 17978; for MICcombo: antibiotic with dUSTBβP 3 at 8 μg/mL", "summary_of_the_method": "as §1"}, "[6]": {"conditions": "in vivo; cited from earlier work"}, "[7]": {"system": "MDR K. pneumoniae clinical isolates", "test": "Resistance phenotype (MICs of antibiotics) of MDR clinical isolates", "assay_type": "cell-based, Klebsiella pneumoniae"}, "[8]": {"system": "MDR A. baumannii clinical isolates", "test": "Resistance phenotype (MICs of antibiotics) of MDR clinical isolates", "assay_type": "cell-based, Acinetobacter baumannii"}, "[9]": {"system": "MDR E. cloacae clinical isolates", "test": "Resistance phenotype (MICs of antibiotics) of MDR clinical isolates", "assay_type": "cell-based, Enterobacter cloacae"}, "[10]": {"system": "MDR clinical isolates of P. aeruginosa", "test": "Checkerboard assay, MDR clinical isolates", "assay_type": "cell-based, Pseudomonas aeruginosa", "conditions": "antibiotic alone", "description": "(§2) The adjuvant activities of dUSTBβPs were evaluated using checkerboard assay as previously described ([Berry et al., 2019]). Overnight-grown bacterial culture diluted in saline to 0.5 McFarland turbidity was successively diluted 1:50 in MHB to achieve a final concentration of 5 × 10^5 CFU/mL for inoculation. The antibiotic and adjuvant were serially diluted 2-fold along the x-axis and y-axis, respectively, resulting in varying concentrations of both agents in each well. Subsequently, the 96-well plate was incubated with equal volumes of bacterial inoculum at 37°C for 18 h. Confirmation of turbidity was done using an EMax Plus microplate reader (Molecular Devices, United States) at a wavelength of 590 nm. Wells comprising MHB alone or in the presence of bacterial cells were used as negative or positive controls, respectively. Fractional inhibitory concentration index (FICI) is determined by adding the FICs of both antibiotic and adjuvant. The FIC of the antibiotic is calculated by dividing the MIC of the antibiotic in the presence of the adjuvant by the MIC of the antibiotic alone. Similarly, the FIC of the adjuvant is calculated by dividing the MIC of the adjuvant in the presence of the antibiotic by the MIC of the adjuvant alone. FICI ≤ 0.5, 0.5 < x ≤ 4, and >4 were deemed synergistic, additive, and antagonistic, respectively ([Meletiadis et al., 2010])."}, "MDR A. baumannii 110193": {"system": "MDR A. baumannii 110193", "test": "Time-kill assay", "assay_type": "cell-based, Acinetobacter baumannii", "conditions": "32 μg/mL novobiocin or 0.5 μg/mL rifampicin alone", "description": "(§3) Overnight-grown bacterial culture diluted in PBS to 0.5 McFarland turbidity was successively diluted 1:50 in lysogeny broth (LB). Cell cultures in the presence of dUSTBβP 3, novobiocin, or rifampicin, or combinations of adjuvant and antibiotic were incubated at 37°C. At designated intervals, 100 μL aliquots acquired from each culture tube were serially diluted in PBS and plated on LB agar plates."}, "[11]": {"system": "wild-type A. baumannii ATCC 17978", "test": "Time-kill assay", "assay_type": "cell-based, Acinetobacter baumannii", "conditions": "32 μg/mL novobiocin or 0.5 μg/mL rifampicin alone", "description": "as §3"}, "MDR E. coli": {"system": "MDR E. coli", "assay_type": "cell-based, Escherichia coli", "conditions": "94393; antibiotic alone", "description": "as §2"}, "[12]": {"conditions": "in vivo; cited from earlier work", "remark": "listed apart in the source"}, "MDR E. cloacae": {"system": "MDR E. cloacae", "test": "Checkerboard assay, MDR clinical isolates", "assay_type": "cell-based, Enterobacter cloacae", "conditions": "antibiotic alone", "description": "as §2"}, "MDR K. pneumoniae": {"system": "MDR K. pneumoniae", "assay_type": "cell-based, Klebsiella pneumoniae", "conditions": "antibiotic alone", "description": "as §2"}, "[13]": {"system": "MDR clinical isolates of A. baumannii", "assay_type": "cell-based, Acinetobacter baumannii", "conditions": "antibiotic alone", "description": "as §2"}, "[14]": {"conditions": "antibiotic alone (Supplementary Table 7)"}}, "note": "Where two headings read alike, the source gives them in different places."}
{"compound": "Colistin", "values": [{"measurement": "MICantibiotic", "setting": "[1]; [14]", "result": 1}, {"measurement": "MICcombo", "setting": "[1]", "result": 1, "unit": "µg/mL"}, {"measurement": "MICantibiotic", "setting": "[2]; [14]", "result": 0.125}, {"measurement": "MICcombo", "setting": "[2]", "result": 0.031, "unit": "µg/mL"}, {"measurement": "MIC", "setting": "[3]; 259-96196", "result": 1, "unit": "µg/mL"}, {"measurement": "MIC", "setting": "[3]; 262-101856", "result": 1, "unit": "µg/mL"}, {"measurement": "MIC", "setting": "[3]; 264-104354", "result": 1, "unit": "µg/mL"}, {"measurement": "MIC", "setting": "[3]; 91433", "result": 4, "unit": "µg/mL"}, {"measurement": "MIC", "setting": "[3]; 114228", "result": 4, "unit": "µg/mL"}, {"measurement": "MIC", "setting": "[4]; 94393 (mcr-1 +)", "result": 4, "unit": "µg/mL"}, {"measurement": "MIC", "setting": "[4]; 94474 (mcr-1 +)", "result": 16, "unit": "µg/mL"}, {"measurement": "MIC", "setting": "[4]; 107115", "result": 0.125, "unit": "µg/mL"}, {"measurement": "MICantibiotic", "setting": "[5]; [14]", "result": 0.5}, {"measurement": "MICcombo", "setting": "[5]", "result": 0.25, "unit": "µg/mL"}, {"measurement": "In vivo elimination half-life", "setting": "[6]", "result": 5, "unit": "h"}, {"measurement": "MIC", "setting": "[7]; 113250", "result": "> 16", "unit": "µg/mL"}, {"measurement": "MIC", "setting": "[7]; 113254", "result": "> 16", "unit": "µg/mL"}, {"measurement": "MIC", "setting": "[7]; 116381", "result": 1, "unit": "µg/mL"}, {"measurement": "MIC", "setting": "[8]; 92247", "result": 4, "unit": "µg/mL"}, {"measurement": "MIC", "setting": "[8]; 110193", "result": 0.5, "unit": "µg/mL"}, {"measurement": "MIC", "setting": "[8]; AB027", "result": 0.25, "unit": "µg/mL"}, {"measurement": "MIC", "setting": "[8]; AB031", "result": 0.25, "unit": "µg/mL"}, {"measurement": "MIC", "setting": "[8]; LAC-4", "result": 0.125, "unit": "µg/mL"}, {"measurement": "MIC", "setting": "[9]; 117029", "result": 0.25, "unit": "µg/mL"}, {"measurement": "MIC", "setting": "[9]; 118564", "result": "> 16", "unit": "µg/mL"}, {"measurement": "MIC", "setting": "[9]; 121187", "result": "> 16", "unit": "µg/mL"}]}
{"compound": "CO[C@@H]1[C@@H](OC(N)=O)[C@@H](O)[C@H](Oc2ccc3c(O)c(NC(=O)c4ccc(O)c(CC=C(C)C)c4)c(=O)oc3c2C)OC1(C)C", "note": "[Novobiocin]", "values": [{"measurement": "MICantibiotic", "setting": "[1]; antibiotic alone", "result": "1,024 μg/mL"}, {"measurement": "MICcombo", "setting": "[1]", "result": 32, "unit": "µg/mL"}, {"measurement": "MIC", "setting": "[1]; Pseudomonas aeruginosa, 18 h, antibiotic alone (Supplementary Table 7), read-out: MICantibiotic", "result": 1020, "unit": "µg/mL"}, {"measurement": "MICantibiotic", "setting": "[10]; PA259-96196", "result": 1024, "unit": "µg/mL"}, {"measurement": "MICantibiotic", "setting": "[10]; PA259-96196, listed as novobiocin", "result": "1,024 μg/mL"}, {"measurement": "MICantibiotic", "setting": "[10]; PA262-101856", "result": 1024, "unit": "µg/mL"}, {"measurement": "MICantibiotic", "setting": "[10]; PA262-101856, listed as novobiocin", "result": "1,024 μg/mL"}, {"measurement": "MICantibiotic", "setting": "[10]; PA264-104354", "result": 1024, "unit": "µg/mL"}, {"measurement": "MICantibiotic", "setting": "[10]; PA264-104354, listed as novobiocin", "result": "1,024 μg/mL"}, {"measurement": "MICantibiotic", "setting": "[10]; PA91433", "result": 1024, "unit": "µg/mL"}, {"measurement": "MICantibiotic", "setting": "[10]; PA91433, listed as novobiocin", "result": "1,024 μg/mL"}, {"measurement": "MICantibiotic", "setting": "[10]; PA114228", "result": 1024, "unit": "µg/mL"}, {"measurement": "MICantibiotic", "setting": "[10]; PA114228, listed as novobiocin", "result": "1,024 μg/mL"}, {"measurement": "MICantibiotic", "setting": "[2]; antibiotic alone", "result": 64, "unit": "µg/mL"}, {"measurement": "MICcombo", "setting": "[2]", "result": 0.125, "unit": "µg/mL"}, {"measurement": "MIC", "setting": "[2]; Escherichia coli, ATCC25922, 18 h, antibiotic alone (Supplementary Table 7), read-out: MICantibiotic", "result": 64, "unit": "µg/mL"}, {"measurement": "Time-kill outcome", "setting": "MDR A. baumannii 110193", "result": "Bacteriostatic"}, {"measurement": "Time-kill outcome", "setting": "[11]", "result": "Bacteriostatic"}, {"measurement": "MICantibiotic", "setting": "MDR E. coli", "result": 64, "unit": "µg/mL"}, {"measurement": "Steady-state serum concentration", "setting": "[12]", "result": 5, "unit": "µg/mL"}, {"measurement": "MICantibiotic", "setting": "[5]; antibiotic alone", "result": 16, "unit": "µg/mL"}, {"measurement": "MICcombo", "setting": "[5]", "result": 0.25, "unit": "µg/mL"}, {"measurement": "MIC", "setting": "[5]; Acinetobacter baumannii, ATCC17978, 18 h, antibiotic alone (Supplementary Table 7), read-out: MICantibiotic", "result": 16, "unit": "µg/mL"}, {"measurement": "MICantibiotic", "setting": "MDR E. cloacae; 117029", "result": 512, "unit": "µg/mL"}, {"measurement": "MICantibiotic", "setting": "MDR E. cloacae; 118564", "result": 256, "unit": "µg/mL"}, {"measurement": "MICantibiotic", "setting": "MDR E. cloacae; 121187", "result": 16, "unit": "µg/mL"}, {"measurement": "MICantibiotic", "setting": "MDR K. pneumoniae; 113250", "result": 128, "unit": "µg/mL"}, {"measurement": "MICantibiotic", "setting": "MDR K. pneumoniae; 113254", "result": 256, "unit": "µg/mL"}, {"measurement": "MICantibiotic", "setting": "MDR K. pneumoniae; 116381", "result": 256, "unit": "µg/mL"}, {"measurement": "MICantibiotic", "setting": "[13]; 92247", "result": 4, "unit": "µg/mL"}, {"measurement": "MICantibiotic", "setting": "[13]; 110193", "result": 128, "unit": "µg/mL"}, {"measurement": "MICantibiotic", "setting": "[13]; AB027", "result": 8, "unit": "µg/mL"}, {"measurement": "MICantibiotic", "setting": "[13]; AB031", "result": 4, "unit": "µg/mL"}, {"measurement": "MICantibiotic", "setting": "[13]; LAC-4", "result": "> 0.5", "unit": "µg/mL"}, {"measurement": "MICantibiotic", "setting": "[13]; LAC-4, listed as novobiocin", "result": 1, "unit": "µg/mL"}]}
